Target: Cytomegalovirus protease/assemblin (Human cytomegalovirus)
Assay: Potency against human cytomegalovirus protease in HCMV pNA assay

Ki [nM] | SMILES
41 | CC(C)c1ccc(NC(=O)N2CCC[C@H]2C(=O)N2CC[C@H]3[C@H]2[C@H](C)C(=O)N3c2nc3c(Cl)cccc3s2)cc1 [(S)-2-[(3aS,6S,6aR)-4-(4-Chloro-benzothiazol-2-yl)-6-methyl-5-oxo-hexahydro-pyrrolo[3,2-b]pyrrole-1-carbonyl]-pyrrolidine-1-carboxylic acid (4-isopropyl-phenyl)-amide]
22 | COc1ccc2sc(N3C(=O)[C@@H](C)[C@@H]4[C@@H]3CCN4C(=O)[C@@H]3CCCN3C(=O)Nc3ccc(C(C)C)cc3)nc2c1 [(S)-2-[(3aS,6S,6aR)-4-(5-Methoxy-benzothiazol-2-yl)-6-methyl-5-oxo-hexahydro-pyrrolo[3,2-b]pyrrole-1-carbonyl]-pyrrolidine-1-carboxylic acid (4-isopropyl-phenyl)-amide]
17 | CC(C)c1ccc(NC(=O)N2CCC[C@H]2C(=O)N2CC[C@H]3[C@H]2[C@H](C)C(=O)N3c2nc3ccc(F)cc3s2)cc1 [(S)-2-[(3aS,6S,6aR)-4-(6-Fluoro-benzothiazol-2-yl)-6-methyl-5-oxo-hexahydro-pyrrolo[3,2-b]pyrrole-1-carbonyl]-pyrrolidine-1-carboxylic acid (4-isopropyl-phenyl)-amide]
10 | CC(C)c1ccc(NC(=O)N2CCC[C@H]2C(=O)N2CC[C@H]3[C@H]2[C@H](C)C(=O)N3c2nc3cc(S(=O)(=O)C(F)F)ccc3s2)cc1 [(S)-2-{(3aS,6S,6aR)-4-[5-(Difluoro-methanesulfonyl)-benzothiazol-2-yl]-6-methyl-5-oxo-hexahydro-pyrrolo[3,2-b]pyrrole-1-carbonyl}-pyrrolidine-1-carboxylic acid (4-isopropyl-phenyl)-amide]
